Experimental data as given in patent publication US9169252B2 (BRISTOL-MYERS SQUIBB COMPANY, priority 2014, dated 2015).

Tests used:
[1] = target: IRAK4 (Homo sapiens (Human), UniProt Q9NWZ3); test: IRAK4 Inhibition Assay; format: biochemical; settings: IRAK4 Inhibition Assay; ATP 500 μM; read-out: IRAK4 IC50
How it was run: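 IRAK4 combined with fluorescent substrate and compounds, reacted 60 min at room temperature, stopped with 35 mM EDTA. Substrate and phosphorylated product separated electrophoretically on a Caliper LabChip 3000 mobility-shift reader.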

[2] = system: TLR2 induced IL-6 in peripheral blood mononuclear cells (PBMCs); test: PBMC TLR2 Induced IL-6 Assay; format: cell-based, human; settings: Homo sapiens, PBMC, PBMC TLR2 Induced IL-6 Assay, lipoteichoic acid stimulation, IL-6 by ELISA; for EC50: read-out: Cell EC50; for IC50: read-out: Cell IC50
How it was run: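 Lipoteichoic acid at 10 µg/ml served as TLR2 stimulus for 5 hours, following a 30-minute compound pretreatment at 37° C. Cells were Ficoll-isolated human PBMCs, 250000 cells/well, cultured in RPMI plus 10% heat-inactivated FCS.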

Chain of IRAK4 (Q9NWZ3 whole entry, species assumed): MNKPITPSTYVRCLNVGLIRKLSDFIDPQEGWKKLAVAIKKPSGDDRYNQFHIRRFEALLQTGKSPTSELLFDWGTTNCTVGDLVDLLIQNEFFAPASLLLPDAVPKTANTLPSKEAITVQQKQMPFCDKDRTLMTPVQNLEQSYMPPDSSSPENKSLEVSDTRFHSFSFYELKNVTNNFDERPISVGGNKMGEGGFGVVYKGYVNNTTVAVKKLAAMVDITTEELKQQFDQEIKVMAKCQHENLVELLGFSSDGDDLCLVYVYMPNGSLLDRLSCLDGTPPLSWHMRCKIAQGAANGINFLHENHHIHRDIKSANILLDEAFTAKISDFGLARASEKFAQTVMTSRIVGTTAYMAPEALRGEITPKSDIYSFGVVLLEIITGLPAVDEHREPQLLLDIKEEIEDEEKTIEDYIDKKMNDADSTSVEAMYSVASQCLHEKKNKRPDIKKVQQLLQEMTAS

IC50 [1]	SMILES	EC50 [2]	IC50 [2]
6.5 nM	CC(C)Nc1cc(-n2ncc3cc(C#N)cnc32)ncc1C(=O)NCCC(C)(C)O [Example 146, 6-(5-cyano-1H-pyrazolo[3,4-b]pyridin-1-yl)-N-(3-hydroxy-3-methylbutyl)-4-(isopropylamino)nicotinamide]	267 nM	–
11.9 nM	CC(C)(O)[C@H](F)CNC(=O)c1cnc(-n2ncc3cc(C#N)cnc32)cc1NCC(F)(F)F [Example 147, (R)-6-(5-cyano-1H-pyrazolo[3,4-b]pyridin-1-yl)-N-(2-fluoro-3-hydroxy-3-methylbutyl)-4-((2,2,2-trifluoroethyl)amino)nicotinamide]	338 nM	–
9.3 nM	CCC(O)(CC)[C@H](F)CNC(=O)c1cnc(-n2ncc3cncnc32)cc1NC(C)C [Example 149, (R)—N-(3-ethyl-2-fluoro-3-hydroxypentyl)-4-(isopropylamino)-6-(1H-pyrazolo[3,4-d]pyrimidin-1-yl)nicotinamide]	239 nM	–
9 nM	CC(C)Nc1cc(-n2ncc3cc(Cl)cnc32)ncc1C(=O)N[C@H]1CC[C@H](C(C)(C)O)CC1 [Example 150, 6-(5-chloro-1H-pyrazolo[3,4-b]pyridin-1-yl)-N-((trans)-4-(2-hydroxypropan-2-yl)cyclohexyl)-4-(isopropylamino)nicotinamide]	593 nM	–
9.5 nM	CC(C)(O)[C@H](F)CNC(=O)c1cnc(-n2ncc3cc(F)cnc32)cc1NC1CC1 [Example 156, (R)-4-(cyclopropylamino)-6-(5-fluoro-1H-pyrazolo[3,4-b]pyridin-1-yl)-N-(2-fluoro-3-hydroxy-3-methylbutyl)nicotinamide]	231 nM	–
5.3 nM	CC(C)Nc1cc(-n2ncc3cc(F)cnc32)ncc1C(=O)NC[C@@H](F)C(C)(C)O [Example 157, (R)-6-(5-fluoro-1H-pyrazolo[3,4-b]pyridin-1-yl)-N-(2-fluoro-3-hydroxy-3-methylbutyl)-4-(isopropylamino) nicotinamide]	97 nM	–
6.8 nM	CC(C)Nc1cc(-n2ncc3cc(C#N)cnc32)ncc1C(=O)N[C@H]1CC[C@H](S(C)(=O)=O)CC1 [Example 161, 6-(5-cyano-1H-pyrazolo[3,4-b]pyridin-1-yl)-4-(isopropylamino)-N-((trans)-4-(methylsulfonyl)cyclohexyl)nicotinamide]	253 nM	–
3.8 nM	[2H]C([2H])([2H])NC(=O)[C@H]1CC[C@H](NC(=O)c2cnc(-n3ncc4cc(C#N)cnc43)cc2NC(C)C)CC1 [Example 162, 6-(5-cyano-1H-pyrazolo[3,4-b]pyridin-1-yl)-4-(isopropylamino)-N-((trans)-4-((^2H3)methylcarbamoyl)cyclohexyl)nicotinamide]	129 nM	–
9.1 nM	CC(C)Nc1cc(-n2ncc3cc(C#N)cnc32)ncc1C(=O)NC1CCc2nc(N)sc2C1 (stereo not shown) [Example 165, N-(2-amino-4,5,6,7-tetrahydrobenzo[d]thiazol-6-yl)-6-(5-cyano-1H-pyrazolo[3,4-b]pyridin-1-yl)-4-(isopropylamino)nicotinamide]	172 nM	–
4.6 nM	CC(C)Nc1cc(-n2ncc3cc(C#N)cnc32)ncc1C(=O)N[C@H]1CC[C@H](NS(C)(=O)=O)CC1 [Example 166, 6-(5-cyano-1H-pyrazolo[3,4-b]pyridin-1-yl)-4-(isopropylamino)-N-((trans)-4-(methylsulfonamido)cyclohexyl)nicotinamide]	192 nM	–
3.7 nM	CC(C)Nc1cc(-n2cnc3cnc(N)nc32)ncc1C(=O)NC[C@@H](F)C(C)(C)O [Example 171, (R)-6-(2-Amino-9H-purin-9-yl)-N-(2-fluoro-3-hydroxy-3-methylbutyl)-4-(isopropylamino)nicotinamide]	208 nM	587 nM

The remaining lines, values behind:

SMILES	IC50 [1]	EC50 [2]	IC50 [2]
CC(C)Nc1cc(-n2ncc3cc(C#N)cnc32)ncc1C(=O)N[C@H]1CC[C@H](C(C)(C)O)CC1 [Example 148, 6-(5-cyano-1H-pyrazolo[3,4-b]pyridin-1-yl)-N-((trans)-4-(2-hydroxypropan-2-yl)cyclohexyl)-4-(isopropylamino)nicotinamide]	1.4 nM	64 nM	–
CC(C)(O)CCNC(=O)c1cnc(-n2ncc3cc(C#N)cnc32)cc1NC1CCOCC1 [Example 151, 6-(5-cyano-1H-pyrazolo[3,4-b]pyridin-1-yl)-N-(3-hydroxy-3-methylbutyl)-4-((tetrahydro-2H-pyran-4-yl)amino)nicotinamide]	14.8 nM	443 nM	–
CNC(=O)[C@H]1CC[C@H](NC(=O)c2cnc(-n3ncc4cc(Cl)cnc43)cc2NC(C)C)CC1 [Example 152, 6-(5-chloro-1H-pyrazolo[3,4-b]pyridin-1-yl)-4-(isopropylamino)-N-((trans)-4-(methylcarbamoyl)cyclohexyl)nicotinamide]	5.6 nM	294 nM	–
CC(C)Nc1cc(-n2ncc3cc(Cl)cnc32)ncc1C(=O)NCCN1CCOCC1 [Example 154, 6-(5-chloro-1H-pyrazolo[3,4-b]pyridin-1-yl)-4-(isopropylamino)-N-(2-morpholinoethyl)nicotinamide]	12 nM	584 nM	–
Cc1cnc2c(cnn2-c2cc(NC(C)C)c(C(=O)NC[C@@H](F)C(C)(C)O)cn2)c1 [Example 155, (R)—N-(2-fluoro-3-hydroxy-3-methylbutyl)-4-(isopropylamino)-6-(5-methyl-1H-pyrazolo[3,4-b]pyridin-1-yl)nicotinamide]	7 nM	164 nM	–
CC(C)Nc1cc(-n2ncc3cc(Br)cnc32)ncc1C(=O)NC[C@@H](F)C(C)(C)O [Example 158, (R)-6-(5-Bromo-1H-pyrazolo[3,4-b]pyridin-1-yl)-N-(2-fluoro-3-hydroxy-3-methylbutyl)-4-(isopropylamino)nicotinamide]	4.2 nM	127 nM	–
CC(C)(O)[C@H](F)CNC(=O)c1cnc(-n2ncc3cc(C#N)cnc32)cc1N[C@H]1CC[C@H](O)CC1 [Example 159, 6-(5-cyano-1H-pyrazolo[3,4-b]pyridin-1-yl)-N—((R)-2-fluoro-3-hydroxy-3-methylbutyl)-4-(((trans)-4-hydroxycyclohexyl)amino)nicotinamide]	2.4 nM	112 nM	–
CNC(=O)[C@H]1CC[C@H](NC(=O)c2cnc(-n3ncc4cc(C#N)cnc43)cc2NC(C)C)CC1 [Example 160, 6-(5-cyano-1H-pyrazolo[3,4-b]pyridin-1-yl)-4-(isopropylamino)-N-((trans)-4-(methylcarbamoyl)cyclohexyl)nicotinamide]	5.8 nM	176 nM	–
CC(C)(O)[C@H](F)CNC(=O)c1cnc(-n2ncc3cc(C#N)cnc32)cc1NC1CCC(F)CC1 (stereo partly drawn) [Example 163, (R)-6-(5-cyano-1H-pyrazolo[3,4-b]pyridin-1-yl)-N-(2-fluoro-3-hydroxy-3-methylbutyl)-4-((4-fluorocyclohexyl)amino)nicotinamide]	3 nM	81 nM	–
CC(=O)N[C@H]1CC[C@H](NC(=O)c2cnc(-n3ncc4cc(C#N)cnc43)cc2NC(C)C)CC1 [Example 164, N-((trans)-4-acetamidocyclohexyl)-6-(5-cyano-1H-pyrazolo[3,4-b]pyridin-1-yl)-4-(isopropylamino) nicotinamide]	3.5 nM	299 nM	–
CC(C)Nc1cc(-n2ncc3cc(C#N)cnc32)ncc1C(=O)NCC(F)(F)C(C)(C)O [Example 167, 6-(5-Cyano-1H-pyrazolo[3,4-b]pyridin-1-yl)-N-(2,2-difluoro-3-hydroxy-3-methylbutyl)-4-(isopropylamino)nicotinamide]	10.5 nM	171 nM	–
CC(C)Nc1cc(-n2ccc(-c3ccnnc3)n2)ncc1C(=O)NC[C@@H](F)C(C)(C)O [Example 168, (R)—N-(2-Fluoro-3-hydroxy-3-methylbutyl)-4-(isopropylamino)-6-(3-(pyridazin-4-yl)-1H-pyrazol-1-yl)nicotinamide]	13.1 nM	305 nM	–
CC(C)(O)[C@H](F)CNC(=O)c1cnc(-n2ncc3cc(C#N)cnc32)cc1NCC(F)(F)C(C)(C)O [Example 169, (R)-6-(5-Cyano-1H-pyrazolo[3,4-b]pyridin-1-yl)-4-((2,2-difluoro-3-hydroxy-3-methylbutyl)amino)-N-(2-fluoro-3-hydroxy-3-methylbutyl)nicotinamide]	3.3 nM	204 nM	–
CC(C)Nc1cc(-n2cnc3cnc(NCCO)nc32)ncc1C(=O)NC[C@@H](F)C(C)(C)O [Example 172, (R)—N-(2-Fluoro-3-hydroxy-3-methylbutyl)-6-(2-((2-hydroxyethyl)amino)-9H-purin-9-yl)-4-(isopropylamino)nicotinamide]	2.5 nM	–	10000 nM
CC(C)Nc1cc(-n2ccc3cc(C#N)cnc32)ncc1C(=O)N[C@H]1CC[C@](F)(c2ccnn2C)CC1 [Example 174, 6-(5-Cyano-1H-pyrrolo[2,3-b]pyridin-1-yl)-N-((1s,4s)-4-fluoro-4-(1-methyl-1H-pyrazol-5-yl)cyclohexyl)-4-(isopropylamino)nicotinamide]	3.3 nM	182 nM	–
CC(C)Nc1cc(-n2ccc3cc(C#N)cnc32)ncc1C(=O)N[C@H]1CC[C@](O)(c2nccs2)CC1 [Example 175, 6-(5-cyano-1H-pyrrolo[2,3-b]pyridin-1-yl)-N-((1s,4s)-4-hydroxy-4-(thiazol-2-yl)cyclohexyl)-4-(isopropylamino)nicotinamide]	5 nM	113 nM	–
